Results from paper PMC11506774 (Biomolecules, 2024).
Converted amounts (≈) assume the structure as drawn. Ends that are not written are not given here.

How the values were obtained:
EV-A71/FY0805 [1] = details: for IC50 (µg/mL) EV-A71 /FY0805: 24 h
EV-A71/FY0805 [2] = test: Receptor competition inhibition assay with cell-free heparan sulfate (HS); format: cell-based; details: peptide 62.5 µg/mL pre-incubated with HS (0–0.5 mg/mL) for 1 h, then mixed with 100 TCID50/50 µL EV-A71/FY0805, RD cells 24 h, crystal violet
Experimental: To confirm the interaction of P25 with receptor heparan sulfate (HS) on the cell surface, 50 µL P25 or its derivatives at a concentration of 62.5 µg/mL were pre-incubated with 50 µL cell-free HS (MCE, HY-101916, Princeton, NJ, USA) at different concentrations of 0–0.5 mg/mL at 37 °C for 1 h, mixed with 100 TCID50/50 µL of EV-A71/FY0805, and infected the pre-seeding RD monolayer cells on 96-well plates for 24 h. The CPE was detected and stained using crystal violet. The optical density (OD) at 550 nm was read using the TECAN Infinite 200 PRO instrument.

Poliovirus 3/nOPV3 = details: 24 h
RD cells = test: Cytotoxicity assay (CCK-8); format: cell-based; details: 24 h, 2-fold dilutions from 1 mg/mL, CCK-8, absorbance 450 nm, mean ± SD, at least two independent experiments
Experimental: RD cells at a density of 4 × 10^4/100 µL/well were seeded in 96-well plates 24 h prior to the cytotoxicity assay. The peptide P25 and its derivatives were reconstituted in DMSO to a concentration of 25 mg/mL and then diluted to 1 mg/mL in DMEM with 100 mM HEPES, from which 2-fold serial dilutions of the peptides were produced, starting with the same medium. DMSO diluted in the same medium served as the control. Fifty microliters of diluted peptides and the control medium were added to the cells and cultured for 24 h. After cultivation, 5 µL of the enhanced CCK-8 reagent (Beyotime, C0043, Shanghai, China) were added directly to each well of the cell culture and cultured for an additional hour. Absorbance at 450 nm was detected using a TECAN Infinite 200 PRO instrument. The cell viability was normalized to the control, and the concentration at which a peptide inhibited 50% of the cell viability (CC50) was calculated using GraphPad Prism 9.5.1 (GraphPad software, San Diego, CA, USA).

EV-D68/BCH895A = details: RD cells, 24 h, crystal violet
Echo 30/WZ16 = details: RD cells, 24 h, crystal violet
HCV = details: cited from earlier work
EV-A71 = details: Table S2, anti-viral target EV-A71; ref [21]; cited from earlier work
Excerpt: page 2: Biomolecules 2024, 14, 1331. https://doi.org/10.3390/biom14101331 2 of 10 Table S2. Self-derived antiviral peptides. Source Virus Protein Peptide Sequence Mechanism Anti-viral EC50 Reference target […] Interfering PA- Influenza A PB1 PB11-25 TTFPYT binding domain of Influenza A / [48] PB1 PB1731– […] Interfering PB1- Influenza A PB1 757 ELGRQK binding domain of Influenza A / [22] PB2 EV-A71 VP1 SP40 […] Prevented EV-A71 EV-A71 6-9.3 [21] attachment μM […] Inhibiting S 0.32- HCoV-19 S P3 […] mediated cell–cell HC ...

[3] = co-treatment, 100 TCID50/50 µL, mean ± SD, at least two independent experiments, >125 = protection less than 50% at 125 µg/mL, NO = no inhibition observed
[4] = peptide at 125 µg/mL (about 56 µM) co-incubated with 100 TCID50/50 µL virus

Compound: CC[C@H](C)[C@H](NC(=O)[C@H](Cc1c[nH]cn1)NC(=O)[C@H](CCCCN)NC(=O)[C@@H]1CCCN1C(=O)[C@H](CCCCN)NC(=O)[C@H](CCSC)NC(=O)[C@H](Cc1ccc(O)cc1)NC(=O)[C@@H](NC(=O)[C@H](CCCNC(=N)N)NC(=O)[C@@H](NC(=O)[C@@H](NC(=O)[C@@H](NC(=O)[C@@H](N)[C@@H](C)O)C(C)C)[C@@H](C)O)C(C)C)C(C)C)C(=O)N[C@@H](CCCCN)C(=O)O [Peptide P25.2]
- IC50 (µg/mL) EV-A71 /FY0805 (EV-A71/FY0805 [1]): >125 µg/mL

Compound: CC[C@H](C)[C@H](NC(=O)[C@H](Cc1c[nH]cn1)NC(=O)[C@H](CCCCN)NC(=O)[C@@H]1CCCN1C(=O)[C@H](CCCCN)NC(=O)[C@H](CCSC)NC(=O)[C@H](Cc1ccc(O)cc1)NC(=O)[C@@H](NC(=O)[C@H](CCCNC(=N)N)NC(=O)[C@@H](NC(=O)[C@@H](NC(=O)[C@@H](NC(=O)[C@@H](N)[C@@H](C)O)C(C)C)[C@@H](C)O)C(C)C)C(C)C)C(=O)N[C@@H](CCCCN)C(=O)N[C@@H](C)C(=O)N[C@@H](Cc1c[nH]c2ccccc12)C(=O)N[C@@H](C)C(=O)O [Peptide P25.5]
- Interference of HS with the antiviral activity of the peptide (EV-A71/FY0805 [2]): No significant interference
- IC50 (µg/mL) EV-A71 /FY0805 (EV-A71/FY0805 [1]): >125 µg/mL

Compound: CC[C@H](C)[C@H](NC(=O)[C@H](Cc1c[nH]cn1)NC(=O)[C@H](CCCCN)NC(=O)[C@@H]1CCCN1C(=O)[C@H](CCCCN)NC(=O)[C@H](CCSC)NC(=O)[C@H](Cc1ccc(O)cc1)NC(=O)[C@@H](NC(=O)[C@H](CCCNC(=N)N)NC(=O)[C@@H](NC(=O)[C@@H](NC(=O)[C@@H](NC(=O)[C@@H](NC(=O)[C@@H](N)Cc1ccccc1)[C@@H](C)O)C(C)C)[C@@H](C)O)C(C)C)C(C)C)C(=O)N[C@@H](CCCCN)C(=O)N[C@@H](C)C(=O)N[C@@H](Cc1c[nH]c2ccccc12)C(=O)N[C@@H](C)C(=O)O [Peptide P25.8]
- IC50 (µg/mL) Poliovirus 3 /nOPV3 (Poliovirus 3/nOPV3): 61.65 ± 4.59 µg/mL (≈ 28.3 µM)
- CC50 (RD cells): 213.07 ± 29.72 µg/mL (≈ 97.9 µM)
- Interference of HS with the antiviral activity of the peptide (EV-A71/FY0805 [2]): interfered with by HS
- IC50 (µg/mL) EV-A71 /FY0805 (EV-A71/FY0805 [1]): 24.49 ± 2.96 µg/mL (≈ 11.3 µM)

Compound: CC[C@H](C)[C@H](NC(=O)[C@H](Cc1c[nH]cn1)NC(=O)[C@H](C)NC(=O)[C@@H]1CCCN1C(=O)[C@H](CCCCN)NC(=O)[C@H](CCSC)NC(=O)[C@H](Cc1ccc(O)cc1)NC(=O)[C@@H](NC(=O)[C@H](CCCNC(=N)N)NC(=O)[C@@H](NC(=O)[C@@H](NC(=O)[C@@H](NC(=O)[C@@H](NC(=O)[C@H](Cc1ccccc1)NC(=O)CN)[C@@H](C)O)C(C)C)[C@@H](C)O)C(C)C)C(C)C)C(=O)N[C@@H](C)C(=O)N[C@@H](C)C(=O)N[C@@H](Cc1c[nH]c2ccccc12)C(=O)N[C@@H](C)C(=O)O [Peptide P25.12]
- IC50 (µg/mL) EV-A71 /FY0805 (EV-A71/FY0805 [1]): 41.17 ± 7.04 µg/mL (≈ 19.4 µM)

Compound: CC[C@H](C)[C@H](NC(=O)[C@H](CCCNC(=N)N)NC(=O)[C@@H](NC(=O)[C@@H](NC(=O)[C@@H](NC(=O)[C@H](CCCCN)NC(=O)[C@H](Cc1ccccc1)NC(=O)CN)C(C)C)C(C)C)[C@@H](C)O)C(=O)N[C@@H](Cc1ccc(O)cc1)C(=O)N[C@@H](Cc1c[nH]cn1)C(=O)N[C@@H](CCCCN)C(=O)N[C@@H](C)C(=O)N[C@@H](CCCCN)C(=O)N[C@@H](Cc1c[nH]cn1)C(=O)N[C@H](C(=O)N[C@@H](CCCCN)C(=O)N[C@@H](C)C(=O)N[C@@H](Cc1c[nH]c2ccccc12)C(=O)N[C@@H](CS)C(=O)O)[C@@H](C)O [Peptide P25.A81GF]
- IC50 (µg/mL) EV-D68 /BCH895A (EV-D68/BCH895A; [3]): >125 µg/mL
- IC50 (µg/mL) Poliovirus 3 /nOPV3 (Poliovirus 3/nOPV3): >125 µg/mL
- IC50 (µg/mL) EV-A71 /FY0805 (EV-A71/FY0805 [1]): 29.28 ± 3.97 µg/mL (≈ 12.9 µM)
- IC50 (µg/mL) Echo 30 /WZ16 (Echo 30/WZ16; [3]): >125 µg/mL

Compound: CC[C@H](C)[C@H](NC(=O)[C@H](CCCNC(=N)N)NC(=O)[C@@H](NC(=O)[C@@H](NC(=O)[C@@H](NC(=O)[C@H](CCCCN)NC(=O)[C@@H](NC(=O)[C@@H](N)CCCCN)C(C)C)C(C)C)C(C)C)[C@@H](C)O)C(=O)N[C@@H](Cc1ccc(O)cc1)C(=O)N[C@@H](Cc1c[nH]cn1)C(=O)N[C@@H](CCCCN)C(=O)N[C@@H](C)C(=O)N[C@@H](CCCCN)C(=O)N[C@@H](Cc1c[nH]cn1)C(=O)N[C@H](C(=O)N[C@@H](CCCCN)C(=O)N[C@@H](C)C(=O)N[C@@H](Cc1c[nH]c2ccccc12)C(=O)N[C@@H](CS)C(=O)O)[C@@H](C)O [Peptide P25.A81]
- Antiviral activity of P25 homologous peptides to EV-A71/FY0805 (EV-A71/FY0805 [1]): displayed antiviral activity
- IC50 (µg/mL) EV-A71 /FY0805 (EV-A71/FY0805 [1]): 23.60 ± 0.49 µg/mL (≈ 10.3 µM)

Compound: ADKNFFKWTINTRSFVQLRR [Peptide P11]
- Inhibitory effect on CPE, peptide screen (EV-D68/BCH895A; [4]): exhibited inhibitory effects on CPE
- Inhibitory effect on CPE, peptide screen (EV-A71/FY0805 [1]): exhibited inhibitory effects on CPE
- Inhibitory effect on CPE, peptide screen (Echo 30/WZ16; [4]): exhibited inhibitory effects on CPE

Compound: AWAKIHKPKMYVRVTVTFG [Peptide P25.R]
- CC50 (RD cells): 98.27 ± 7.13 µg/mL

Compound: GFTVTVRVYMK [Peptide P25.1]
- IC50 (µg/mL) EV-A71 /FY0805 (EV-A71/FY0805 [1]): 34.06 ± 9.39 µg/mL

Compound: HGLLYFAIFFVAAWHIRGR [Peptide H2-3]
- EC50 (HCV): 540 nM

Compound: QMRRKVELFTYMRFD [SP40, peptide derived from VP1 of EV-A71, prevented EV-A71 attachment]
- EC50 (EV-A71): 6000 to 9300 nM

Compound: SFAIKWEYVLLLFLL [Peptide 75]
- EC50 (HCV): 300 nM

Compound: SWLRDIWDWICEVLSDFK [Peptide C5A, peptide from NS5A of HCV, destabilizing viral membranes]
- EC50 (HCV): 340 nM

Compound: TVTVRVYHK [Peptide P25.4]
- IC50 (µg/mL) EV-A71 /FY0805 (EV-A71/FY0805 [1]): >125 µg/mL

Compound: TVTVRVYMK [Peptide P25.3]
- IC50 (µg/mL) EV-A71 /FY0805 (EV-A71/FY0805 [1]): >125 µg/mL
